Experimental data taken from patent US11654096B2 (L'OREAL, priority 2017, dated 2023).
Where “and” joins values, the source holds several entries; their conditions need not be identical. Equal entries are not always repeated.

Legend:
Assay type in all cases: cell-based
[1] = system: normal human dermal fibroblasts (NHDFs); test: Neosynthesis of total GAGs by NHDFs, [3H]-glucosamine incorporation; details: tested at 10 and 100 μM
Description: (§1) The effects of the compounds on the neosynthesis of total and sulfated glycosaminoglycans (GAGs) were studied on two cell models, normal human epidermal keratinocytes (NHEKs) and normal human dermal fibroblasts (NHDFs). The effects of these compounds were evaluated by measuring: • the incorporation of [3H]-glucosamine into the total GAGs neosynthesized by NHEKs and by NHDFs, • the incorporation of [35S]-sulfate into the sulfated GAGs neosynthesized by NHEKs and by NHDFs.
(§2) The fibroblasts were seeded into wells and cultured in culture medium for 24 hours. The medium was then replaced with culture medium containing or not containing (controt) the compounds to be tested or the reference (TGF-β at 10 ng/ml), then the cells were incubated for 72 hours with the addition of the [35S]-sulfate radioactive label (sulfated GAGs) or of the [3H]-glucosamine radioactive label (total GAGs) for the final 24 hours of incubation.
(§3) At the end of the incubation, the glycosaminoglycans were extracted from the cells with a chaotropic buffer. The GAGs were then purified by ion exchange chromatography: adsorption of the anionic molecules on Q-Sepharose beads and desorption of the molecules of low or medium anionic nature, with a suitable solution.
(§4) The radioactivity incorporated into the molecules left on the support (GAGs, predominantly) was measured by liquid scintillation.
(§5) All the experimental conditions were performed in n=3.
(§6) The inter-group comparisons were performed using Student's non-paired two-sided t-test. The statistical analyses can be interpreted if n≥5; however, for n<5, the data calculated are provided only by way of indication.

[2] = system: normal human epidermal keratinocytes (NHEKs); test: Neosynthesis of total GAGs by NHEKs, [3H]-glucosamine incorporation; details: for % Control / Mean (cpm) / [3H]-glucosamine (cpm): total GAGs, NHEKs; for [3H]-glucosamine (cpm): single replicates
Description: as §1
(§7) The keratinocytes were seeded into wells and cultured in culture medium for 24 hours. The medium was then replaced with culture medium containing or not containing (control) the compounds to be tested or the reference (4-nitrophenyl β-D-xylopyranoside at 300 μM), then the cells were incubated for 72 hours with the addition of the [3H]-glucosamine radioactive label (total GAGs) or of the [35S]-sulfate radioactive label (sulfated GAGs) for the final 24 hours of incubation.
as §3, §4, §5, §6

[3] = system: normal human epidermal keratinocytes (NHEKs); test: Neosynthesis of sulfated GAGs by NHEKs, [35S]-sulfate incorporation; details: for % Control / Mean (cpm) / [35S]-Sulfate (cpm): sulfated GAGs, NHEKs; for [35S]-Sulfate (cpm): single replicates
Description: as §1, §7, §3, §4, §5, §6

[4] = system: normal human dermal fibroblasts (NHDFs); test: Neosynthesis of sulfated GAGs by NHDFs, [35S]-sulfate incorporation; details: for % Control / Mean (cpm) / [35S]-Sulfate (cpm): sulfated GAGs, NHDFs; for [35S]-Sulfate (cpm): single replicates
Description: as §1, §2, §3, §4, §5, §6

## OC[C@H]1O[C@@H](Oc2cc(O)cc(/C=C/c3ccc(O)cc3)c2)[C@H](O)[C@@H](O)[C@@H]1O [Polydatin]
[1]
  effect on the neosynthesis of the total GAGs by the NHDFs (in words): overall inhibited
[2]; tested at 10 and 100 μM
  effect on the neosynthesis of the total GAGs by the NHEKs (in words): did not modulate
[2]; campaign 1, 10 μM
  % Control: 102%
  Mean (cpm): 13202 cpm
  [3H]-glucosamine (cpm): 13405 cpm and 13192 cpm and 13010 cpm
[2]; campaign 1, 100 μM
  % Control: 90%
  Mean (cpm): 11660 cpm
  [3H]-glucosamine (cpm): 12222 cpm and 11510 cpm and 11248 cpm
[3]; campaign 1, 10 μM
  % Control: 100%
  Mean (cpm): 6760 cpm
  [35S]-Sulfate (cpm): 6316 cpm and 6800 cpm and 7164 cpm
[3]; campaign 1, 100 μM
  % Control: 119%
  Mean (cpm): 8043 cpm
  [35S]-Sulfate (cpm): 7007 cpm and 8365 cpm and 8756 cpm
[3]; tested at 10 and 100 μM
  effect on the neosynthesis of the sulfated GAGs by the NHEKs (in words): did not modulate
[4]; campaign 1, 10 μM
  % Control: 96%
  Mean (cpm): 1573 cpm
  [35S]-Sulfate (cpm): 1523 cpm and 1479 cpm and 1718 cpm
[4]; campaign 1, 100 μM
  % Control: 78%
  Mean (cpm): 1287 cpm
  [35S]-Sulfate (cpm): 1290 cpm and 1317 cpm and 1255 cpm
[4]; tested at 10 and 100 μM
  effect on the neosynthesis of the sulfated GAGs by the NHDFs (in words): overall inhibited
